Results published in ChEMBL document CHEMBL5126572, “Synthesis and biological evaluation of new series of benzamide derivatives containing urea moiety as sEH inhibitors” (Bioorg Med Chem Lett, 2022).
One block for each compound: values may come before it. Calls of active or inactive are those of the source.

Columns and labels:
[1] = target: T1, Bifunctional epoxide hydrolase 2 (Homo sapiens) (UniProt P34913); test: Inhibition of sEH (unknown origin) at 100 nM relative to control
T1 sequence (whole entry): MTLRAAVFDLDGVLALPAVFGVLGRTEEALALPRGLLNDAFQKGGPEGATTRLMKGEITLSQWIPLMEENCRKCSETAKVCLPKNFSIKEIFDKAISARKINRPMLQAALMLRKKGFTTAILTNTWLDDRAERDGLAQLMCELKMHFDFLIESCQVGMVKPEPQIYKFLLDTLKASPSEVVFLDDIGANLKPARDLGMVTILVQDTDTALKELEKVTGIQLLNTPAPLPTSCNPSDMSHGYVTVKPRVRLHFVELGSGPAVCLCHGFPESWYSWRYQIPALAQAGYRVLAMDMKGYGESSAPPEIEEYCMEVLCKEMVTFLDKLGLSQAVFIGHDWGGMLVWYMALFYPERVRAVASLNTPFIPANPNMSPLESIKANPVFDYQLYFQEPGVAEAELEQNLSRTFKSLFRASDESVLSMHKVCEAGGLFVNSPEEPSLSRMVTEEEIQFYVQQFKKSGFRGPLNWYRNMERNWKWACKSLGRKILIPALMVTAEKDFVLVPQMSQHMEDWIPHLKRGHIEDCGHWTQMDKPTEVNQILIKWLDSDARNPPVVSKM

[2] = Microsomal stability in human liver microsomes assessed as half life; format: ADME, Microsome
[3] = Microsomal stability in dog liver microsomes assessed as half life; format: ADME, Canis lupus familiaris, Microsome
[4] = Microsomal stability in mouse liver microsomes assessed as half life; format: ADME, Microsome
[5] = Microsomal stability in rat liver microsomes assessed as half life; format: ADME, Microsome
Rattus norvegicus = test: Antinociceptive activity in carrageenan-induced inflammatory pain Sprague-Dawley rat model assessed as increase in mechanical withdrawal threshold at 50 mg/kg, ip by von-frey filament assay; format: functional, organism-based

Compound: Cc1cc(C(=O)Nc2ccc(Cl)cc2)ccc1N(CCN1CCCCC1)C(=O)Nc1ccc(Cl)cc1
inhibition [1]: 92.5%

Compound: Cc1cc(C(=O)Nc2ccc(F)cn2)ccc1N(CCN1CCOCC1)C(=O)Nc1ccc(Cl)cc1
inhibition [1]: 97.8%

Compound: Cc1cc(C(=O)Nc2ccc(Cl)cc2)ccc1NC(=O)Nc1ccc(Cl)cc1
inhibition [1]: 80.3%

Compound: Cc1cc(C(=O)Nc2ccc(Cl)cc2)ccc1N(CCN1CC[S+]([O-])CC1)C(=O)Nc1ccc(Cl)cc1
inhibition [1]: 90.4%

Compound: Cc1cc(C(=O)Nc2ccc(Cl)cc2)ccc1N(CCN1CCOC[C@H]1C)C(=O)Nc1ccc(Cl)cc1
inhibition [1]: 67.1%

Compound: Cc1cc(C(=O)Nc2ccc(Cl)cc2)ccc1N(CC(C)C)C(=O)Nc1ccc(Cl)cc1
inhibition [1]: 69.4%

Compound: Cc1cc(C(=O)Nc2ccc(F)cn2)ccc1N(CCN1CCCC1)C(=O)Nc1ccc(Cl)cc1
half-life [2]: 27.5 min
inhibition [1]: 94.8%
half-life [3]: 33.5 min
half-life [4]: 26.2 min
half-life [5]: 16 min

Compound: O=C(NC12CC3CC(CC(C3)C1)C2)N[C@H]1CC[C@H](Oc2ccc(C(=O)O)cc2)CC1
Activity (Rattus norvegicus): Active

Compound: Cc1cc(C(=O)Nc2ccccn2)ccc1N(CCN1CCOCC1)C(=O)Nc1ccc(Cl)cc1
inhibition [1]: 85.8%

Compound: Cc1cc(C(=O)Nc2ccc(Cl)cc2)ccc1N(CCN1CCOC[C@@H]1C)C(=O)Nc1ccc(Cl)cc1
inhibition [1]: 63.1%

Compound: CC(=O)c1ccc(NC(=O)c2ccc(N(CCN3CCOCC3)C(=O)Nc3ccc(Cl)cc3)c(C)c2)cc1
inhibition [1]: 84.5%

Compound: Cc1cc(C(=O)Nc2cnn(C)c2)ccc1N(CCN1CCOCC1)C(=O)Nc1ccc(Cl)cc1
inhibition [1]: 87.7%

Compound: Cc1cc(C(=O)Nc2ccc(Cl)cc2)ccc1N(CC(=O)N1CCOCC1)C(=O)Nc1ccc(Cl)cc1
half-life [2]: 31.9 min
inhibition [1]: 95.7%
half-life [3]: 37 min
half-life [4]: 28.3 min
half-life [5]: 45.9 min

Compound: Cc1cc(C(=O)Nc2ccc(C#N)cc2)ccc1N(CCN1CCOCC1)C(=O)Nc1ccc(Cl)cc1
inhibition [1]: 64%

Compound: Cc1ccc(-c2cc(C(F)(F)F)nn2-c2ccc(S(N)(=O)=O)cc2)cc1
Activity (Rattus norvegicus): Active

Compound: Cc1cc(C(=O)Nc2ccc(F)cn2)ccc1N(CCN1CCCC1=O)C(=O)Nc1ccc(Cl)cc1
half-life [2]: 4 min
inhibition [1]: 94.5%
half-life [3]: 3.1 min
half-life [4]: 3.7 min
half-life [5]: 3.1 min

Compound: Cc1cc(C(=O)Nc2ccc(Cl)cc2)ccc1N(CCN1CCCC1=O)C(=O)Nc1ccc(Cl)cc1
half-life [2]: 9.5 min
inhibition [1]: 98.9%
half-life [3]: 11 min
half-life [4]: 8.8 min
half-life [5]: 4.5 min

Compound: Cc1cc(C(=O)Nc2ccc3c(c2)OCO3)ccc1N(CCN1CCCC1)C(=O)Nc1ccc(Cl)cc1
inhibition [1]: 83.3%

Compound: Cc1cc(C(=O)Nc2cnccn2)ccc1N(CCN1CCOCC1)C(=O)Nc1ccc(Cl)cc1
inhibition [1]: 62.3%

Compound: COCCN(C(=O)Nc1ccc(Cl)cc1)c1ccc(C(=O)Nc2ccc(Cl)cc2)cc1C
inhibition [1]: 70.5%

Compound: CCN(CC)CCN(C(=O)Nc1ccc(Cl)cc1)c1ccc(C(=O)Nc2ccc(Cl)cc2)cc1C
inhibition [1]: 67.2%

Further lines, with some results ahead:

inhibition [1]: 74.3%
Compound: Cc1cc(C(=O)Nc2ccc(Cl)cc2)ccc1N(CCO)C(=O)Nc1ccc(Cl)cc1

inhibition [1]: 83.7%
Compound: Cc1cc(C(=O)Nc2ccc(Cl)cc2)ccc1N(CCN1CCSCC1)C(=O)Nc1ccc(Cl)cc1

inhibition [1]: 62.8%
Compound: Cc1cc(C(=O)Nc2nccs2)ccc1N(CCN1CCOCC1)C(=O)Nc1ccc(Cl)cc1

half-life [2]: 5.8 min
inhibition [1]: 87.8%
half-life [3]: 5.4 min
half-life [4]: 7.7 min
half-life [5]: 5.4 min
Compound: Cc1cc(C(=O)Nc2ccc(C(F)(F)F)nc2)ccc1N(CCN1CCOCC1)C(=O)Nc1ccc(Cl)cc1

half-life [2]: 9.1 min
inhibition [1]: 93.9%
half-life [3]: 12.9 min
half-life [4]: 8.9 min
half-life [5]: 10.7 min
Compound: Cc1cc(C(=O)Nc2ccc(Cl)cc2)ccc1N(CCN1CCOCC1=O)C(=O)Nc1ccc(Cl)cc1

half-life [2]: 197 min
inhibition [1]: 98.5%
half-life [3]: 137 min
half-life [4]: 35.8 min
half-life [5]: 27.3 min
Compound: Cc1cc(C(=O)Nc2ccc(Cl)cc2)ccc1N(CCN1CCCC1)C(=O)Nc1ccc(Cl)cc1
Activity (Rattus norvegicus): Active

half-life [2]: 3.9 min
inhibition [1]: 92.7%
half-life [3]: 3.3 min
Compound: Cc1cc(C(=O)Nc2ccc3c(c2)OCO3)ccc1N(CCN1CCCC1=O)C(=O)Nc1ccc(Cl)cc1

inhibition [1]: 67.7%
Compound: Cc1cc(C(=O)Nc2ccc(Cl)cc2)ccc1N(CCN(C)C)C(=O)Nc1ccc(Cl)cc1

inhibition [1]: 75.9%
Compound: Cc1cc(C(N)=O)ccc1N(CCN1CCOCC1)C(=O)Nc1ccc(Cl)cc1

half-life [2]: 6.9 min
inhibition [1]: 95.6%
half-life [3]: 5.2 min
half-life [4]: 4 min
Compound: Cc1cc(C(=O)Nc2ccc3c(c2)OCO3)ccc1N(CCN1CCOCC1)C(=O)Nc1ccc(Cl)cc1

inhibition [1]: 95.2%
Compound: Cc1cc(C(=O)Nc2ccc(Cl)cc2)ccc1N(CCN1CCS(=O)(=O)CC1)C(=O)Nc1ccc(Cl)cc1
